Values after ≈ are worked out from the molar mass of the structure shown.
What was measured:
[1] = Stability of Form C (Tables 5A-5F); assay type: physicochemical; settings: for Impurities, HPLC: B / Impurities, HPLC: C / Impurities, HPLC: D / Impurities, HPLC: RRT 1.07 / Impurities, HPLC: SM1 / Impurities, HPLC: SM2 / Impurities, HPLC: Unidentified impurity / Purity, HPLC / Water content / Assay, HPLC / Impurities, HPLC: A: 40° C./75% RH
[2] = Solubility in aqueous media at 37° C.; assay type: physicochemical; settings: for XRPD of residual solids: 24 h; for solubility at 2 h / solubility at 24 h: thermodynamic from solid
Protocol: The anhydrate Form C (equivalent to 8 mg of free form) was weighed into a 20 mL glass vial. 4 mL of solubility medium was added. Obtained suspensions were stirred at 37° C. at 400 rpm. Some of the suspensions were taken out at 2 hours and 24 hours, respectively. Then they were centrifuged at 3700 at 14,000 rpm for 5 (m. Supernatants were analyzed by HPLC and pH meter for solubility and pH, respectively. Residual solids (wet cakes) were characterized by XRPD to determine physical form.

[3] = Hygroscopicity by dynamic vapor sorption (DVS); assay type: physicochemical
Protocol: Dynamic vapor sorption (DVS) was performed on an Intrinsic, Advantage or Adventure with an oven temperature of 25° C. using water as a solvent. The sample mass was about 5-10 mg using the following method: • Cycle: 40-0-95-0-40% RH • Stage Step: 10% • Equilibrium: 0.002 dm/dt (%/min) • Minimum dm/dt stability duration: 60 min • Maximum dm/dt stage time: 360 min. Analysis of Polymorphs
Hygroscopicity of Form C was evaluated by dynamic vapor sorption (DVS) test at 25° C. Form C is non-hygroscopic below 90% relative humidity (RH). Form C absorbs about 0.2% water in 95% RH at 25° C.

[4] = Interconversion of polymorphs (heating, dehydration, humidity, equilibration); assay type: physicochemical
From the text: In total, 15 forms were identified to be polymorphs or pseudo-polymorphs of the free form, including seven anhydrates, Forms A, C, H, J, K. L and O; four hydrates, Forms B, F, M and N; and three solvates, Forms D, E and I. In addition, a metastable form, Form G, and an amorphous form were also obtained.
The interconversion relation of polymorphs identified is outlined in FIG. 5.

[5] = Competitive equilibration experiments of anhydrates; settings: at both 25° C. and 50° C.
Protocol: Relative stability of the anhydrate Forms A, C, H and J was investigated with competitive equilibration experiments.
Relative stability of the anhydrates Forms C, K and L was investigated with competitive equilibration experiments.
To determine relative stability of anhydrates, competitive equilibration experiments were conducted in different solvent systems.
About 2 mg of each anhydrate was added to 0.3-0.4 mL saturated solutions of selected solvents. Obtained suspensions were stirred at 25° C. for 3-10 days, respectively. Solid parts (wet cakes) were isolated by centrifugation filtration and investigated by XRPD.

[6] = pH 7.0 phosphate buffer (50 mM)
[7] = aqueous buffer, pH 3.0 citrate buffer (50 mM)
[8] = aqueous buffer, pH 5.0 acetate buffer (50 mM)
[9] = aqueous buffer, pH 7.0 phosphate buffer (50 mM)
[10] = simulated gastric fluid, pH 1.0 HCl solution (0.1N)

Cc1nc(-c2c[nH]c3c(C#N)cccc23)cnc1OCC(C)(C)O [Form C, 3-(5-(2-hydroxy-2-methylpropoxy)-6-methylpyrazin-2-yl)-1H-indole-7-carbonitrile]
Impurities, HPLC: B ([1]; 01 Month): <0.05 area %
Impurities, HPLC: C ([1]; 01 Month): <0.05 area %
Impurities, HPLC: D ([1]; 01 Month): <0.05 area %
Impurities, HPLC: RRT 1.07 ([1]; 01 Month): 0.70 area %
Impurities, HPLC: SM1 ([1]; 01 Month): <0.05 area %
Impurities, HPLC: SM2 ([1]; 01 Month): <0.05 area %
Impurities, HPLC: Unidentified impurity ([1]; 01 Month): <0.05 area %
Purity, HPLC ([1]; 01 Month): 99.3 area %
Water content ([1]; 01 Month): <0.05 wt %
Assay, HPLC ([1]; 03 Month): 98.7 wt %
Impurities, HPLC: A ([1]; 03 Month): <0.05 area %
Impurities, HPLC: B ([1]; 03 Month): <0.05 area %
Impurities, HPLC: C ([1]; 03 Month): <0.05 area %
Impurities, HPLC: D ([1]; 03 Month): <0.05 area %
Impurities, HPLC: RRT 1.07 ([1]; 03 Month): 0.77 area %
Impurities, HPLC: SM1 ([1]; 03 Month): <0.05 area %
Impurities, HPLC: SM2 ([1]; 03 Month): <0.05 area %
Impurities, HPLC: Unidentified impurity ([1]; 03 Month): <0.05 area %
Purity, HPLC ([1]; 03 Month): 99.2 area %
Water content ([1]; 03 Month): <0.05 wt %
Assay, HPLC ([1]; 06 Month): 99.1 wt %
Impurities, HPLC: A ([1]; 06 Month): <0.05 area %
Impurities, HPLC: B ([1]; 06 Month): <0.05 area %
Impurities, HPLC: C ([1]; 06 Month): <0.05 area %
Impurities, HPLC: D ([1]; 06 Month): <0.05 area %
Impurities, HPLC: RRT 1.07 ([1]; 06 Month): 0.73 area %
Impurities, HPLC: SM1 ([1]; 06 Month): <0.05 area %
Impurities, HPLC: SM2 ([1]; 06 Month): <0.05 area %
Impurities, HPLC: Unidentified impurity ([1]; 06 Month): <0.05 area %
Purity, HPLC ([1]; 06 Month): 99.3 area %
Water content ([1]; 06 Month): <0.05 wt %
Assay, HPLC ([1]; Initial): 99.4 wt %
Impurities, HPLC: A ([1]; Initial): <0.05 area %
Impurities, HPLC: B ([1]; Initial): <0.05 area %
Impurities, HPLC: C ([1]; Initial): <0.05 area %
Impurities, HPLC: D ([1]; Initial): <0.05 area %
Impurities, HPLC: RRT 1.07 ([1]; Initial): 0.77 area %
Impurities, HPLC: SM1 ([1]; Initial): <0.05 area %
Impurities, HPLC: SM2 ([1]; Initial): <0.05 area %
Impurities, HPLC: Unidentified impurity ([1]; Initial): <0.05 area %
Purity, HPLC ([1]; Initial): 99.2 area %
Water content ([1]; Initial): <0.05 wt %
Stability ([1]; conditions where the temperature and relative humidity are altered): stable
XRPD of residual solids ([2]; pH 1.0 HCl solution (0.1N)): Form C
XRPD of residual solids ([2]; pH 3.0 citrate buffer (50 mM)): Form C
XRPD of residual solids ([2]; pH 5.0 acetate buffer (50 mM)): Form C
XRPD of residual solids [2, 6]: Form C
solubility at 2 h [2, 7]: 5.97 µg/mL (≈ 18.5 µM)
solubility at 24 h [2, 7]: 4.08 µg/mL (≈ 12.7 µM)
solubility at 2 h [2, 8]: 5.44 µg/mL (≈ 16.9 µM)
solubility at 24 h [2, 8]: 3.85 µg/mL (≈ 11.9 µM)
solubility at 2 h [2, 9]: 5.43 µg/mL (≈ 16.8 µM)
solubility at 24 h [2, 9]: 11.6 µg/mL (≈ 35.9 µM)
24 h (pH) of supernatant ([2]; pH 1.0 HCl solution (0.1N)): 1.0
24 h (pH) of supernatant ([2]; pH 3.0 citrate buffer (50 mM)): 3.1
24 h (pH) of supernatant ([2]; pH 5.0 acetate buffer (50 mM)): 5.1
24 h (pH) of supernatant [2, 6]: 7.3
solubility at 2 h [2, 10]: 17 µg/mL (≈ 52.8 µM)
solubility at 24 h [2, 10]: 14.6 µg/mL (≈ 45.2 µM)
Form after the DVS test ([3]; DVS at 25° C.): still in Form C
Hygroscopicity ([3]; DVS at 25° C., below 90% relative humidity (RH)): non-hygroscopic
Water absorbed ([3]; DVS, 95% RH at 25° C.): about 0.2%
Stability compared to the other polymorph forms [4]: most stable polymorph
Relative thermodynamic stability of anhydrates [5]: thermodynamically stable anhydrate

Source: patent US12168650B2, “Crystalline forms of 3-(5-(2-hydroxy-2-methylpropoxy)-6-methylpyrazin-2-yl)-1H-indole-7-carbonitrile” (NIDO BIOSCIENCES, INC., priority 2022, dated 2024)
